In one assay the target is T1, c-kit kinase (Homo sapiens, UniProt P10721).
T1 construct: The c-kit (or kinase domain thereof) is an active kinase in AlphaScreen; poly-Histidine tag (in-house protein only) (cleaved yes); host or cells: E. coli BL21(DE3)RIL, co-expressed with PTP1B
The assay can be described thus: c-Kit biochemical assay, AlphaScreen, 10 μM ATP. The note with it: c-kit biochemical inhibitory activity; read-out: Biochemical activity (IC50 μM) Kit. Put shortly: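 His-tagged c-Kit expressed in E. coli with co-expressed PTP1B (dephosphorylated), tag removed; 0.1 ng per reaction with biotinylated-peptide substrate in 50 mM HEPES pH 7.2, 5 mM MgCl2, 5 mM MnCl2, 5% DMSO, 10 μM ATP, 1 h at room temperature. Phosphorylation detected by AlphaScreen (streptavidin donor, PY20 acceptor beads); IC50 from 8-point 1:3 dilution series.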
(Bead proximity is the source of the signal in Alpha formats.)

The target of the next assay is T2, c-kit mutant D816V (Homo sapiens, UniProt P10721, D816V/DEL694-753).
T2 construct: residues 551-934, kinase insertion domain residues 694-753 deleted; 6x-histidine (N); made in house; host or cells: E. coli Arctic Express (DE3) RIL (Stratagene)
Description: c-Kit mutant D816V biochemical assay, AlphaScreen. The note with it: c-kit D816V biochemical inhibitory activity; read-out: Biochemical activity (IC50 μM) Kit D816V. The procedure, abridged: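 Eight-point, threefold compound series incubated 30 min at room temperature with E. coli-produced D816V kinase, 10 μM ATP, Mg2+/Mn2+ HEPES buffer pH 7.2 and 5% DMSO. After EDTA stop, streptavidin and anti-phosphotyrosine (PY20) AlphaScreen beads gave the read-out, and IC50 was fitted from the concentration–signal curve.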

As a reminder, the IC50 is the point on the concentration scale where inhibition reaches its midpoint.

T1 sequence (P10721 26-976): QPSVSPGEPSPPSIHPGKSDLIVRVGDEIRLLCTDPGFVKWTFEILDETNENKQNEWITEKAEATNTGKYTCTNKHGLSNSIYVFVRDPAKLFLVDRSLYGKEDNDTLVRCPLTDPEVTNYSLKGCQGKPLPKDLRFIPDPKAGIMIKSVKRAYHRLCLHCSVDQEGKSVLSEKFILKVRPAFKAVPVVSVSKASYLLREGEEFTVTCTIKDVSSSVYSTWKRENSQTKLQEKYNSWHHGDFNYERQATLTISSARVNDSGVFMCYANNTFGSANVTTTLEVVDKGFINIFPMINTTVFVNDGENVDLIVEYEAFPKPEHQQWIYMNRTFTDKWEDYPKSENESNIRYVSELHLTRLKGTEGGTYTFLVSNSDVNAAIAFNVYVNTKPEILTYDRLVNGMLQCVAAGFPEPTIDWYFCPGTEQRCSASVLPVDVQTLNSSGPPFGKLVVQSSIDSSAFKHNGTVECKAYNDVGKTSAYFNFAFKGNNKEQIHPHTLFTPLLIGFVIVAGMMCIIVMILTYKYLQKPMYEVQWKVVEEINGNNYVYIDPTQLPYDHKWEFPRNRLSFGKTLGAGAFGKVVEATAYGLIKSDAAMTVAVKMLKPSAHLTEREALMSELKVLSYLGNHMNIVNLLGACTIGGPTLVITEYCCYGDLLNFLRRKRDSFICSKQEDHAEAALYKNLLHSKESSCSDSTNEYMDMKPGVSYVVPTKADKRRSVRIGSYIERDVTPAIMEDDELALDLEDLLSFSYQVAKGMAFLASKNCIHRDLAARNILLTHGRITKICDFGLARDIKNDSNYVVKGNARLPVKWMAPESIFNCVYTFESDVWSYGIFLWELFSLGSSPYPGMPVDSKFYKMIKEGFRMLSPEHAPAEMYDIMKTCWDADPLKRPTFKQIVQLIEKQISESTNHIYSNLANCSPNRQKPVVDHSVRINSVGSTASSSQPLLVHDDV
T2 sequence (P10721 with tags, fused parts or gaps DEL694-753/D816V): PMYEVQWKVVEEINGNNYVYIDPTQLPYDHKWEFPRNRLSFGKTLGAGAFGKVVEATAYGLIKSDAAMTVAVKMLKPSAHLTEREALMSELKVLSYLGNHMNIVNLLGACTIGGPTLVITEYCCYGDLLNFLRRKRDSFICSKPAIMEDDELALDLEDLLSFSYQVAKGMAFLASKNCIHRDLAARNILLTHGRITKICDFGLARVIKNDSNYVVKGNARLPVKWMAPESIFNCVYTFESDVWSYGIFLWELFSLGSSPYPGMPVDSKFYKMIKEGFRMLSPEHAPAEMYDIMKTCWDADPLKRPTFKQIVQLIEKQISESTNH

With `C[C@H](NC(=O)N1CCN(c2ncnc3[nH]c(-c4ccc(F)cc4)cc23)CC1)c1cccc2ccccc12` [P-0155, 4-[6-(4-fluorophenyl)-7H-pyrrolo[2,3-d]pyrimidin-4-yl]-N-[(1S)-1-(1-naphthyl)ethyl]piperazine-1-carboxamide], the results for the 50% inhibitory concentration (IC50) at c-kit kinase and on c-kit mutant D816V were 1 to 10 µM and 0.0001 to 1 µM, respectively.

Regarding `COc1ccc(CNC(=O)N2CCN(c3ncnc4[nH]c(-c5ccc(F)cc5)cc34)CC2)cc1` [P-0157, 4-[6-(4-fluorophenyl)-7H-pyrrolo[2,3-d]pyrimidin-4-yl]-N-[(4-methoxyphenyl)methyl]piperazine-1-carboxamide], the IC50 on c-kit kinase and on c-kit mutant D816V was 10 to 200 µM throughout.

For `O=C(Nc1ccc(F)c(Cl)c1)N1CCN(c2ncnc3[nH]ccc23)CC1` [P-0165, N-(3-chloro-4-fluoro-phenyl)-4-(7H-pyrrolo[2,3-d]pyrimidin-4-yl)piperazine-1-carboxamide], the IC50 on c-kit kinase lay in the range of 1 to 10 µM; at c-kit mutant D816V, 10 to 200 µM.

Regarding `O=C(Nc1cccc(C(F)(F)F)c1)N1CCN(c2ncnc3[nH]ccc23)CC1` [P-0167, 4-(7H-pyrrolo[2,3-d]pyrimidin-4-yl)-N-[3-(trifluoromethyl)phenyl]piperazine-1-carboxamide], the IC50 on c-kit kinase and on c-kit mutant D816V was 10 to 200 µM each time.

On to `O=C(Nc1cccc(Cl)c1)N1CCN(c2ncnc3[nH]ccc23)CC1` [P-0168, N-(3-chlorophenyl)-4-(7H-pyrrolo[2,3-d]pyrimidin-4-yl)piperazine-1-carboxamide], for which the IC50 on c-kit kinase and at c-kit mutant D816V was 10 to 200 µM throughout.

For the molecule `COc1ccc(CCNC(=O)N2CCN(c3ncnc4[nH]ccc34)CC2)cc1` [P-0169, N-[2-(4-methoxyphenyl)ethyl]-4-(7H-pyrrolo[2,3-d]pyrimidin-4-yl)piperazine-1-carboxamide], the IC50 at c-kit kinase and on c-kit mutant D816V was 10 to 200 µM throughout.

`O=C(NCc1ccc(Cl)cc1)N1CCN(c2ncnc3[nH]ccc23)CC1` [P-0170, N-[(4-chlorophenyl)methyl]-4-(7H-pyrrolo[2,3-d]pyrimidin-4-yl)piperazine-1-carboxamide]: the IC50 at c-kit kinase lay in the range of 1 to 10 µM; at c-kit mutant D816V, 10 to 200 µM.

For the molecule `O=C(Nc1ccc(Cl)cc1)N1CCN(c2ncnc3[nH]ccc23)CC1` [P-0171, N-(4-chlorophenyl)-4-(7H-pyrrolo[2,3-d]pyrimidin-4-yl)piperazine-1-carboxamide], the IC50 on c-kit kinase and at c-kit mutant D816V was 10 to 200 µM in each case.

`O=C(NC1CCCC1)N1CCN(c2ncnc3[nH]ccc23)CC1` [P-0177, N-cyclopentyl-4-(7H-pyrrolo[2,3-d]pyrimidin-4-yl)piperazine-1-carboxamide]: the figures for the IC50 at c-kit kinase and on c-kit mutant D816V were 10 to 200 µM and 0.0001 to 1 µM, respectively.

As to `CCOc1ccc(NC(=O)N2CCN(c3ncnc4[nH]c(C)cc34)CC2)cc1` [P-0181, N-(4-ethoxyphenyl)-4-(6-methyl-7H-pyrrolo[2,3-d]pyrimidin-4-yl)piperazine-1-carboxamide], the IC50 at c-kit kinase and at c-kit mutant D816V was 10 to 200 µM each time.

In the case of `O=C(NCc1ccc(F)cc1)N1CCN(c2ncnc3[nH]ccc23)CC1` [P-0182, N-[(4-fluorophenyl)methyl]-4-(7H-pyrrolo[2,3-d]pyrimidin-4-yl)piperazine-1-carboxamide], the IC50 on c-kit kinase and at c-kit mutant D816V was 10 to 200 µM throughout.

`O=C(Nc1ccc(F)cc1)N1CCN(c2ncnc3[nH]ccc23)CC1` [P-0183, N-(4-fluorophenyl)-4-(7H-pyrrolo[2,3-d]pyrimidin-4-yl)piperazine-1-carboxamide]: the values for the half-inhibitory concentration (IC50) at c-kit kinase and at c-kit mutant D816V were 1 to 10 µM and 10 to 200 µM, respectively.

Regarding `C[C@H](NC(=O)N1CCN(c2ncnc3[nH]c(-c4ccc(Cl)cc4)cc23)CC1)c1ccc(Cl)cc1` [P-0188, N-[(1S)-1-(4-chlorophenyl)ethyl]-4-[6-(4-chlorophenyl)-7H-pyrrolo[2,3-d]pyrimidin-4-yl]piperazine-1-carboxamide], the IC50 at c-kit kinase was 1 to 10 µM; on c-kit mutant D816V, 0.0001 to 1 µM.

The record behind these values is patent publication US10227357B2, “Compounds and methods for kinase modulation, and indications therefor” (Plexxikon Inc., priority 2012, dated 2019).
